Source: patent publication US11006631B2, “Substituted pyrimidinyloxy pyridine derivatives as herbicides” (FMC Corporation, priority 2015, dated 2021)

Tests used:
Assay type in all cases: in vivo
[1] = system: morningglory (Ipomoea spp.); assay: Test A preemergence, morningglory; details: 0 to 100 scale
Excerpt: (§1) Seeds of plant species selected from bamyardgrass (Echinochloa crus-galli), kochia (Kochia scoparia), ragweed (common ragweed, Ambrosia elatior), ryegrass, Italian (Italian ryegrass, Lolium multiflorum), foxtail, giant (giant foxtail, Setaria faberii), pigweed (Amaranthus retroflexus), crabgrass, large (large crabgrass, Digitaria sanguinalis), momingglory (Ipomoea spp.), velvetleaf (Abutilon theophrasti), wheat (Triticum aestivum), and corn (Zea mays) were planted into a blend of loam soil and sand and treated preemergence with a directed soil spray using test chemicals formulated in a non-phytotoxic solvent mixture which included a surfactant. At the same time, plants selected from these crop and weed species and also blackgrass (Alopecurus myosuroides), and galium (catchweed bedstraw, Galium aparine) were planted in pots containing the same blend of loam soil and sand and treated with postemergence applications of test chemicals formulated in the same manner. Plants ranged in height from 2 to 10 cm and were in the one- to two-leaf stage for the postemergence treatment. Treated plants and untreated controls were maintained in a greenhouse for approximately 10 days, after which time all treated plants were compared to untreated controls and visually evaluated for injury. Plant response ratings, summarized in Table A, are based on a 0 to 100 scale where 0 is no effect and 100 is complete control. A dash (-) response means no test result.

corn (Zea mays) [2] = assay: Test A postemergence, corn; details: 0 to 100 scale
Excerpt: as §1

rice (Oryza sativa) = assay: Test B flooded paddy test, rice; details: Flood, 250 g ai/ha; scale of 0 to 100
Experimental: (§2) Plant species in the flooded paddy test selected from rice (Oryza sativa), sedge, umbrella (small-flower umbrella sedge, Cyperus difformis), ducksalad (Heteranthera limosa), and barnyardgrass (Echinochloa crus-galli) were grown to the 2-leaf stage for testing. At time of treatment, test pots were flooded to 3 cm above the soil surface, treated by application of test compounds directly to the paddy water, and then maintained at that water depth for the duration of the test. Treated plants and controls were maintained in a greenhouse for 13 to 15 days, after which time all species were compared to controls and visually evaluated. Plant response ratings, summarized in Table B, are based on a scale of 0 to 100 where 0 is no effect and 100 is complete control. A dash (-) response means no test result.

[3] = system: pigweed (Amaranthus retroflexus); assay: Test A postemergence, pigweed; details: 0 to 100 scale
Excerpt: as §1

[4] = system: velvetleaf (Abutilon theophrasti); assay: Test A preemergence, velvetleaf; details: 0 to 100 scale
Excerpt: as §1

[5] = system: crabgrass, large (large crabgrass, Digitaria sanguinalis); assay: Test A preemergence, crabgrass, large; details: 0 to 100 scale
Excerpt: as §1

[6] = system: barnyardgrass (Echinochloa crus-galli); assay: Test A preemergence, barnyardgrass; details: 0 to 100 scale
Excerpt: as §1

[7] = system: wheat (Triticum aestivum); assay: Test A postemergence, wheat; details: 0 to 100 scale
Excerpt: as §1

[8] = system: morningglory (Ipomoea spp.); assay: Test A postemergence, morningglory; details: 0 to 100 scale
Excerpt: as §1

[9] = system: ducksalad (Heteranthera limosa); assay: Test B flooded paddy test, ducksalad; details: Flood, 250 g ai/ha; scale of 0 to 100
Experimental: as §2

[10] = system: crabgrass, large (large crabgrass, Digitaria sanguinalis); assay: Test A postemergence, crabgrass, large; details: 0 to 100 scale
Excerpt: as §1

[11] = system: pigweed (Amaranthus retroflexus); assay: Test A preemergence, pigweed; details: 0 to 100 scale
Excerpt: as §1

[12] = system: sedge, umbrella (small-flower umbrella sedge, Cyperus difformis); assay: Test B flooded paddy test, sedge, umbrella; details: Flood, 250 g ai/ha; scale of 0 to 100
Experimental: as §2

[13] = system: wheat (Triticum aestivum); assay: Test A preemergence, wheat; details: 0 to 100 scale
Excerpt: as §1

[14] = system: barnyardgrass (Echinochloa crus-galli); assay: Test A postemergence, barnyardgrass; details: 0 to 100 scale
Excerpt: as §1

corn (Zea mays) [15] = assay: Test A preemergence, corn; details: 0 to 100 scale
Excerpt: as §1

[16] = system: foxtail, giant (giant foxtail, Setaria faberii); assay: Test A preemergence, foxtail, giant; details: 0 to 100 scale
Excerpt: as §1

[17] = system: foxtail, giant (giant foxtail, Setaria faberii); assay: Test A postemergence, foxtail, giant; details: 0 to 100 scale
Excerpt: as §1

[18] = system: velvetleaf (Abutilon theophrasti); assay: Test A postemergence, velvetleaf; details: 0 to 100 scale
Excerpt: as §1

[19] = system: galium (catchweed bedstraw, Galium aparine); assay: Test A postemergence, galium; details: 0 to 100 scale
Excerpt: as §1

[20] = system: ryegrass, Italian (Italian ryegrass, Lolium multiflorum); assay: Test A preemergence, ryegrass, Italian; details: 0 to 100 scale
Excerpt: as §1

[21] = system: ragweed (common ragweed, Ambrosia elatior); assay: Test A preemergence, ragweed; details: 0 to 100 scale
Excerpt: as §1

kochia (Kochia scoparia) [22] = assay: Test A preemergence, kochia; details: 0 to 100 scale
Excerpt: as §1

kochia (Kochia scoparia) [23] = assay: Test A postemergence, kochia; details: 0 to 100 scale
Excerpt: as §1

[24] = system: blackgrass (Alopecurus myosuroides); assay: Test A postemergence, blackgrass; details: 0 to 100 scale
Excerpt: as §1

[25] = system: ragweed (common ragweed, Ambrosia elatior); assay: Test A postemergence, ragweed; details: 0 to 100 scale
Excerpt: as §1

[26] = system: ryegrass, Italian (Italian ryegrass, Lolium multiflorum); assay: Test A postemergence, ryegrass, Italian; details: 0 to 100 scale
Excerpt: as §1

[27] = system: barnyardgrass (Echinochloa crus-galli); assay: Test B flooded paddy test, barnyardgrass; details: Flood, 250 g ai/ha; scale of 0 to 100
Experimental: as §2

Clc1cnc(Oc2cccnc2-n2cc(-c3ccccc3)cn2)nc1 [Compound 4]
20: Plant response rating, Pigweed ([3]; 125 g ai/ha) | Plant response rating, Barnyardgrass ([14]; 500 g ai/ha)
10: Plant response rating, Rice (rice (Oryza sativa)) | Plant response rating, Morningglory ([8]; 500 g ai/ha)
30: Plant response rating, Corn (corn (Zea mays) [2]; 500 g ai/ha)
70: Plant response rating, Pigweed ([3]; 500 g ai/ha) | Plant response rating, Sedge, Umbrella [12]
0: Plant response rating, Morningglory ([1]; 125 g ai/ha) | Plant response rating, Morningglory ([1]; 500 g ai/ha) | Plant response rating, Corn (corn (Zea mays) [2]; 125 g ai/ha) | Plant response rating, Velvetleaf ([4]; 125 g ai/ha) | Plant response rating, Velvetleaf ([4]; 500 g ai/ha) | Plant response rating, Crabgrass, Large ([5]; 125 g ai/ha) | Plant response rating, Crabgrass, Large ([5]; 500 g ai/ha) | Plant response rating, Barnyardgrass ([6]; 125 g ai/ha) | Plant response rating, Barnyardgrass ([6]; 500 g ai/ha) | Plant response rating, Wheat ([7]; 125 g ai/ha) | Plant response rating, Wheat ([7]; 500 g ai/ha) | Plant response rating, Morningglory ([8]; 125 g ai/ha) | Plant response rating, Ducksalad [9] | Plant response rating, Crabgrass, Large ([10]; 125 g ai/ha) | Plant response rating, Crabgrass, Large ([10]; 500 g ai/ha) | Plant response rating, Pigweed ([11]; 125 g ai/ha) | Plant response rating, Pigweed ([11]; 500 g ai/ha) | Plant response rating, Wheat ([13]; 125 g ai/ha) | Plant response rating, Wheat ([13]; 500 g ai/ha) | Plant response rating, Barnyardgrass ([14]; 125 g ai/ha) | Plant response rating, Corn (corn (Zea mays) [15]; 125 g ai/ha) | Plant response rating, Corn (corn (Zea mays) [15]; 500 g ai/ha) | Plant response rating, Foxtail, Giant ([16]; 125 g ai/ha) | Plant response rating, Foxtail, Giant ([16]; 500 g ai/ha) | Plant response rating, Foxtail, Giant ([17]; 125 g ai/ha) | Plant response rating, Foxtail, Giant ([17]; 500 g ai/ha) | Plant response rating, Velvetleaf ([18]; 125 g ai/ha) | Plant response rating, Velvetleaf ([18]; 500 g ai/ha)

Clc1ccc(-c2cccnc2Oc2ncc(Cl)cn2)nc1 [Compound 12, 5-chloro-2-[(5-chloro[2,3′-bipyridin]-2′-yl)oxy]pyrimidine]
60: Plant response rating, Pigweed ([11]; 125 g ai/ha)
10: Plant response rating, Corn (corn (Zea mays) [2]; 125 g ai/ha) | Plant response rating, Galium ([19]; 31 g ai/ha) | Plant response rating, Galium ([19]; 125 g ai/ha) | Plant response rating, Pigweed ([3]; 31 g ai/ha) | Plant response rating, Ragweed ([25]; 125 g ai/ha)
20: Plant response rating, Rice (rice (Oryza sativa))
0: Plant response rating, Corn (corn (Zea mays) [2]; 31 g ai/ha) | Plant response rating, Ryegrass, Italian ([20]; 31 g ai/ha) | Plant response rating, Ryegrass, Italian ([20]; 125 g ai/ha) | Plant response rating, Ragweed ([21]; 31 g ai/ha) | Plant response rating, Ragweed ([21]; 125 g ai/ha) | Plant response rating, Kochia (kochia (Kochia scoparia) [22]; 31 g ai/ha) | Plant response rating, Kochia (kochia (Kochia scoparia) [23]; 31 g ai/ha) | Plant response rating, Barnyardgrass ([6]; 31 g ai/ha) | Plant response rating, Barnyardgrass ([6]; 125 g ai/ha) | Plant response rating, Wheat ([7]; 31 g ai/ha) | Plant response rating, Wheat ([7]; 125 g ai/ha) | Plant response rating, Blackgrass ([24]; 31 g ai/ha) | Plant response rating, Blackgrass ([24]; 125 g ai/ha) | Plant response rating, Pigweed ([11]; 31 g ai/ha) | Plant response rating, Ragweed ([25]; 31 g ai/ha) | Plant response rating, Ryegrass, Italian ([26]; 31 g ai/ha) | Plant response rating, Ryegrass, Italian ([26]; 125 g ai/ha) | Plant response rating, Barnyardgrass ([14]; 31 g ai/ha) | Plant response rating, Foxtail, Giant ([16]; 31 g ai/ha) | Plant response rating, Foxtail, Giant ([16]; 125 g ai/ha) | Plant response rating, Foxtail, Giant ([17]; 31 g ai/ha) | Plant response rating, Foxtail, Giant ([17]; 125 g ai/ha) | Plant response rating, Barnyardgrass [27]
40: Plant response rating, Kochia (kochia (Kochia scoparia) [22]; 125 g ai/ha) | Plant response rating, Kochia (kochia (Kochia scoparia) [23]; 125 g ai/ha)
30: Plant response rating, Pigweed ([3]; 125 g ai/ha) | Plant response rating, Ducksalad [9] | Plant response rating, Sedge, Umbrella [12] | Plant response rating, Barnyardgrass ([14]; 125 g ai/ha)
